Measured values: US20240228487A1, “FUSED HETEROCYCLIC COMPOUND AND APPLICATION THEREOF, PHARMACEUTICAL COMPOSITIONS CONTAINING SAME AND APPLICATION THEREOF” (ZHEJIANG UNIVERSITY, priority 2021, published 2024)

Experiments:
[1] = target: T1, human TRPM2 channels (Homo sapiens, UniProt O94759); assay: whole cell patch clamp, inhibition of TRPM2 channel current; type: cell-based; conditions: HEK293 cells stably expressing human TRPM2, 500 μM ADPR
T1 construct: expressed in transfected cells
Method: The fused heterocyclic compound of the present invention has an inhibitory effect on the TRPM2 channel, and its pharmacological activity is measured using whole cell patch clamp technology, the corresponding steps are as follows: Incubating HEK293 cells stably expressing human TRPM2 channels in DMEM/F-12 medium containing 10% bovine serum, 50 units/mL of penicillin and […] of streptomycin under the condition of 5% CO2 and 37° C. The cells before testing are stored in the extracellular fluid (147 mM NaCl, 2 mM KCl, 1 mM MgCl2, 2 mM CaCl2, 10 mM HEPES, 13 mM glucose, pH 7.4). The electrode is filled with the electrode internal solution (147 mM NaCl, 0.05 mM EGTA, 1 mM MgCl2, 10 mM HEPES, 0.5 mM ADPR, pH=7.3), and the resistance is maintained at 3-5 M Ω. Administering ADPR into cells through electrodes, and detecting the ADPR concentration used to activate TRPM2 as 500 μM, when detecting a stable current, perfusing the corresponding concentration of fused heterocyclic compound II-1 into the extracellular fluid for at least 60 seconds. record the change in current magnitude using voltage ramp mode, changing the voltage from −100 mV to+100 mV within 500 ms, with a normal clamp voltage of 0 mV and a TRPM every 5 seconds; finally, replacing the extracellular fluid with a solution with pH=5.0 to block the TRPM2 current, the electrophysiological current test results obtained are shown in Table 1, and the electrophysiological current graph obtained is shown in FIG. 1. Similarly, administering corresponding concentrations of other fused heterocyclic compounds (II-2˜II-54, III-1˜III-11) into the extracellular fluid, taking electrophysiological tests using the same method, the results are shown in Table 1. The electrophysiological representative current graphs of some fused heterocyclic compounds (II-9, II-19, and II-36) inhibiting TRPM2 channel current are shown in FIG. 1.

[2] = tested on: C57BL/6 mice, transient middle cerebral artery occlusion (tMCAO); assay: mouse tMCAO ischemia/reperfusion injury model (Embodiment 68); type: in vivo; conditions: 3 mg/kg tail vein injection 3 h after reperfusion
Method: After isoflurane inhalation gas anesthesia of 22-25 g male C57BL/6 mice, the fiber-optic probes of the laser Doppler flowmeter were fixed to the animal's skull with glue for monitoring the cerebral blood flow of the middle cerebral artery (MCA) supplying cortex. […] Only animals whose blood flow values decreased to 20% of the basic value were selected according to the blood flow data monitored by the flowmeter. […]
The mice were decapitated 24 h after ischemia-reperfusion, the coronal planes of the brains were cut into brain slices of about 2 mm thickness uniformly, the brain slices were placed in 0.25% 2,3,5-triphenyltetrazolium chloride (TTC) solution, incubated at 37° C. […] The processed brain slices were photographed using a macro camera, and Image J image analysis software was used to calculate and count the cerebral infarct volume, and the measured results are shown in FIG. 4. […]

[3] = tested on: C57BL/6 mice, transient middle cerebral artery occlusion (tMCAO); assay: mouse tMCAO cerebral stroke model (Embodiment 69); type: in vivo; conditions: 3 mg/kg tail vein injection 3 h after reperfusion; for area of cerebral infarction caused by tMCAO: TTC staining 24 h after ischemia-reperfusion; for neuromotor dysfunction scores caused by tMCAO: scored 24 h after ischemia-reperfusion
Source text: After isoflurane inhalation gas anesthesia of 22-25 g male C57BL/6 mice, the fiber-optic probes of a laser Doppler flowmeter were fixed to the skull of the mice with glue for monitoring the cerebral blood flow of the middle cerebral artery (MCA) supplying cortex. The mice were fixed in the supine position, and the middle of the neck was dehaired and routinely sterilized with 75% alcohol. An approximately 1.5 cm incision was made in the middle of the neck, and the skin of the neck was incised, and the muscle and fascia were separated along the inner edge of the sternocleidomastoideole; the right carotid artery sheath was bluntly separated to expose the right common carotid artery (CCA), external carotid artery (ECA), and internal carotid artery (ICA); after the surgical area was exposed satisfactorily, the CCA and ICA were temporarily clipped with arterial clips, and a small incision was made at the proximal end of the ECA with microsurgical scissors, and a nylon monofilament suture was inserted from the small incision along the ECA, and gently pushed into the intracranial area in the direction of the ICA for about 11.5±0.5 mm, blocking the beginning of the middle cerebral artery. Only the animals whose blood flow values decreased to 20% of the basic value were selected according to the blood flow data monitored by the flowmeter. After 90 minutes of ischemia, the monofilament sutures were gently withdrawn out, the arterial stumps were tied tightly, the surgical wounds were inspected, the bleeding was thoroughly stopped, a small amount of penicillin powder was sprinkled locally to prevent infection, and the subcutaneous tissues and the skin were sutured layer by layer, thus completing the ischemia reperfusion injury model. A heating plate was used to maintain the body temperature of the animals during surgery. After completion of the surgery, the sutured mice were placed in a heat preservation and humidification box until the mice recovered activities. Animals in the sham-operated group were subjected to the same surgical procedure but without middle artery occlusion.
Clean-grade male C57BL/6 mice were randomly divided into five groups, namely, the sham-operated group, the group of the positive control drug Edaravone(3 mg/kg), and the 3 mg/kg dose group of compounds II-1, II-23 and III-1.
The mice were subjected to tail vein injections of Edaravone, II-1, II-23, and III-1 respectively 3 h after modeling and reperfusion; the sham-operated group was injected with an equal volume of saline, and II-1, II-23, III-1, and Edaravone were dissolved in 0.9% saline solution. Neurological function scores and TTC staining of mice were performed 24 h after ischemia-reperfusion, and the results are shown in FIGS. 6, 7 and 8.
The mice were decapitated 24 h after ischemia-reperfusion, the coronal planes of the brains were cut into brain slices of about 2 mm thickness uniformly. The brain slices were placed in 0.25% 2,3,5-triphenyltetrazolium chloride (TTC) solution, incubated at 37° C. Celsius for 30 minutes away from light, stained, and fixed in 4% paraformaldehyde neutral buffer (pH 7.4) overnight. The processed brain slices were photographed using a macro camera, and Image J image analysis software was used to calculate and count the cerebral infarct volume, and the measured results are shown in FIG. 7. The formula for calculating the percentage of infarct volume was (sum of the left uninfarcted area −sum of the right uninfarcted area)/sum of the left uninfarcted area×100%.
According to the five-level, four-point standard of score, the mortality and neuromotor dysfunction scores of each group of mice were performed, and the results are shown in FIG. 8. […]

[4] = tested on: dopaminergic neurons differentiated from iPSC derived from disseminated PD patients; assay: mitochondrial fusion morphology (Mitotracker, Girk2 labeling) of iPSC differentiated dopaminergic neurons; type: cell-based, human; conditions: II-23 0.6 μM, ACA 0.5 μM; Mitotracker staining, Girk2-positive neurons
Method: Using normal and disseminated PD patient-derived induced pluripotent stem cells (iPSC), performing drug interventions using the TRPM2 inhibitors ACA and II-23 after they were induced and differentiated into mature dopaminergic neurons, the drug treating method is as follows: • a. Calculating the materials for the experiment, and starting preparing when the dopaminergic neurons are differentiated to the 8th day. The petri dishes should be treated with 33 μg/mL PDL overnight and washed with sterilized water. After drying, 2 μg/mL of laminin was added and incubated overnight. Both PDL and laminin can be recycled for reuse. • b. […] Fluorescence confocal imaging was performed using a confocal dish inoculated with 2 mL/dish, and cell viability assays were performed using a 96-well plate inoculated with 100 μL/well. […]
Positive dopamine neurons were labeled with a dopaminergic neuron marker molecule Girk2 antibody susceptible for SNc, and cellular mitochondria were labeled with the mitochondrial dye mitotracker as in FIG. 15. […] Finally, performing the fluorescence imaging: removing the secondary antibody, and washing three times with 1×PBS, adding 50% Glycerol for fluorescence protection, and then imaging with a Zeiss LSM880 laser confocal microscope, as shown in FIG. 15.

[5] = tested on: dopaminergic neurons differentiated from iPSC derived from disseminated PD patients; assay: cell viability (cell titer glo) of iPSC differentiated dopaminergic neurons; type: cell-based, human; conditions: II-23 0.6 μM, ACA 0.5 μM, from day 15 of culture; CTG kit
Method: Using normal and disseminated PD patient-derived induced pluripotent stem cells (iPSC), performing drug interventions using the TRPM2 inhibitors ACA and II-23 after they were induced and differentiated into mature dopaminergic neurons, the drug treating method is as follows: • a. Calculating the materials for the experiment, and starting preparing when the dopaminergic neurons are differentiated to the 8th day. The petri dishes should be treated with 33 μg/mL PDL overnight and washed with sterilized water. After drying, 2 μg/mL of laminin was added and incubated overnight. Both PDL and laminin can be recycled for reuse. • b. Digesting and collecting the differentiated cells with Accutase, and counting with a cell counting plate, and then diluting to 500,000/mL with maturation medium (Y-27632 should be added). Fluorescence confocal imaging was performed using a confocal dish inoculated with 2 mL/dish, and cell viability assays were performed using a 96-well plate inoculated with 100 μL/well. Taking this time point as the 10th day, changing to Y-27632-free medium on the 11th day, and changing the medium every two days. • c. When the cells were cultured to the 15th day, treating the drugs to a final concentration with the medium, the working concentration of ACA is 0.5 μM, and the working concentration of II-23 is 0.6 μM, and the drug-containing medium was changed every four days. […]

T1 sequence (O94759 whole entry): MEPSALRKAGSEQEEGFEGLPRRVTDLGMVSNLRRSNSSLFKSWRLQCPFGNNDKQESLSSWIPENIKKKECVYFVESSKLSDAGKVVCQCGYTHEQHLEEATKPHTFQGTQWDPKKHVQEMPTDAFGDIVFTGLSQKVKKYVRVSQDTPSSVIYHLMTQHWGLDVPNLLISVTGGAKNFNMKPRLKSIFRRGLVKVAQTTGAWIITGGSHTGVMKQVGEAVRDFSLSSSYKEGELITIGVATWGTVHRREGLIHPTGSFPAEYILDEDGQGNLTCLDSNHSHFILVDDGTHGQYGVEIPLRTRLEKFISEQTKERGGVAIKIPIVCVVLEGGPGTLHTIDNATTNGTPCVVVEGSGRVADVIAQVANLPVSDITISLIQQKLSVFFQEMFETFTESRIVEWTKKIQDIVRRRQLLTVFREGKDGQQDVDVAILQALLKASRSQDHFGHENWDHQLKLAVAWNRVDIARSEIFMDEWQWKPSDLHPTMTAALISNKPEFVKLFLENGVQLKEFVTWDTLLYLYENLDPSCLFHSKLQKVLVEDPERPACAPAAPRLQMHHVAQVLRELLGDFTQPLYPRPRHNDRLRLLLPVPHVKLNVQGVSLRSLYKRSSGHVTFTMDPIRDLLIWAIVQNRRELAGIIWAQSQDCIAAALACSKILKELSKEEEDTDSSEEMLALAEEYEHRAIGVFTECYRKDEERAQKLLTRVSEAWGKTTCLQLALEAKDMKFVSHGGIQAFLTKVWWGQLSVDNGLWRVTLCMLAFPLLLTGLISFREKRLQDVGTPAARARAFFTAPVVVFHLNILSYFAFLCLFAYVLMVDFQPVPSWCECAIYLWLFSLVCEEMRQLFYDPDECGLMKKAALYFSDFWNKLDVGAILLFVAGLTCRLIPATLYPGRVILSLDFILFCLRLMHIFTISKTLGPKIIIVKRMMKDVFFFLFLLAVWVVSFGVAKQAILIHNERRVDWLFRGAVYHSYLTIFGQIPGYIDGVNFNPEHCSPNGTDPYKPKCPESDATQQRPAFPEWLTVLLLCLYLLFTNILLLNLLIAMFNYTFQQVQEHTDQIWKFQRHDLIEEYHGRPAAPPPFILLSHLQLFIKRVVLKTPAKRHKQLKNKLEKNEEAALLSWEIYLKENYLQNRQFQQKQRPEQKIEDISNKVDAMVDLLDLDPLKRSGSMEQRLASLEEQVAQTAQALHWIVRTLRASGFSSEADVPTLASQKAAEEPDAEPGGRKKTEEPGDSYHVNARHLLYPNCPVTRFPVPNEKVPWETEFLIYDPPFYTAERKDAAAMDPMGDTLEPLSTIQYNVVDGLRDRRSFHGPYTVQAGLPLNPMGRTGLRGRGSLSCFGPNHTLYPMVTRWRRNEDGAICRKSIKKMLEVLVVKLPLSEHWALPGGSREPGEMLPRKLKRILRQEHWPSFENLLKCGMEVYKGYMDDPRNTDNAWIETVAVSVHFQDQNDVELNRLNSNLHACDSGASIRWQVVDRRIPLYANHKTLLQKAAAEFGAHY

CCOC(=O)c1cc(C(=O)c2ccccc2)n2cccc2c1 [II-1, 5-benzoimide 7-carboxylic acid ethyl ester]
IC50 [1]: 1 to 10 µM
volume of cerebral infarction caused by tMCAO ([2]; TTC staining 24 h after ischemia-reperfusion): significantly reduce
scores of neuromotor dysfunction caused by tMCAO ([2]; scored 24 h after ischemia-reperfusion): significantly reduce
area of cerebral infarction caused by tMCAO [3]: significantly reduced
neuromotor dysfunction scores caused by tMCAO [3]: significantly reduced

CCN(CC)C(=O)c1cc(C(O)c2ccccc2)n2cccc2c1 (stereo not shown) [II-45, N,N-diethyl-5-(hydroxy(phenyl)methyl) indolizine-7-formamide]
IC50 [1]: 10 to 20 µM

CCOC(=O)c1cc(C(=O)c2cccc(F)c2)n2cccc2c1 [II-7, 5-(3-fluorobenzoyl)indolizine-7-ethyl carboxylate]
IC50 [1]: 1 to 10 µM

COC(=O)c1cc(C(=O)c2ccccc2)n2ccnc2c1 [III-1, 5-benzimidazolo[1,2-a]pyridine-7-methyl carboxylate]
IC50 [1]: 1 to 10 µM
area of cerebral infarction caused by tMCAO [3]: significantly reduced
neuromotor dysfunction scores caused by tMCAO [3]: significantly reduced

CCCOC(=O)c1cc(C(=O)c2ccccc2)n2cccc2c1 [II-2, 5-benzoimide 7-carboxypropyl ester]
IC50 [1]: 1 to 10 µM

O=C(c1ccccc1)c1cc(C(=O)N2CCNCC2)cc2cccn12 [II-29, (5-benzoyl indolizine-7-yl) (piperazin-1-yl) ketone]
IC50 [1]: 20 to 50 µM

COC(=O)c1cc(C(=O)c2cccc(F)c2)n2cccc2c1 [II-6, 5-(3-Fluorobenzoyl)indolizine-7-methyl carboxylate]
IC50 [1]: 1 to 10 µM

CCOC(=O)c1cc(C(O)c2ccccc2)n2cccc2c1 (stereo not shown) [II-41]
IC50 [1]: 10 to 20 µM

CCCCCc1ccc(/C=C/C(=O)Nc2ccccc2C(=O)O)cc1 [ACA, reference compound]
excessive mitochondrial fusion in dopaminergic neurons derived from PD patients [4]: reversed
cell viability of differentiated dopaminergic neurons derived from disseminated PD patients [5]: restored
